Values after ≈ are worked out from the molar mass of the structure shown.
Assays:
Plasmodium falciparum [1] = test: Antiplasmodium activity against chloroquine-sensitive Plasmodium falciparum NF54 asexual blood stage forms infected in human erythrocytes assessed as reduction in [3H]-hypoxanthine incorporation incubated for 48 hrs by liquid scintillation counting method; assay type: functional, organism-based
Plasmodium falciparum [2] = test: Antiplasmodium activity against multidrug resistant Plasmodium falciparum K1 asexual blood stage forms infected in human erythrocytes assessed as reduction in [3H]-hypoxanthine incorporation incubated for 48 hrs by liquid scintillation counting method; assay type: functional, organism-based
CHO = test: Cytotoxicity in CHO cells assessed as reduction in cell viability by MTT assay; assay type: cell-based; conditions: Cricetulus griseus
[3] = Selectivity index, ratio of IC50 for cytotoxicity in CHO cells to IC50 for antiplasmodium activity against chloroquine-sensitive Plasmodium falciparum NF54 asexual blood stage forms infected in human erythrocytes; assay type: toxicity, cell-based; conditions: Chinese hamster, read-out: Ratio IC50
Hemozoin = test: Inhibition of beta-hematin formation assessed as reduction in hemozoin formation incubated for 5 hrs by NP40 detergent-based assay
[4] = Kinetic solubility in pH 7.4 PBS at 0.125 to 8 mM incubated for 2 hrs by turbidimetric kinetic solubility assay; assay type: physicochemical; conditions: read-out: Kinetic_solubility

| SMILES | IC50 (Plasmodium falciparum [1]) | IC50 (Plasmodium falciparum [2]) | IC50 (CHO) | selectivity ratio [3] | IC50 (Hemozoin) | solubility kinetic at 2 h [4] |
| --- | --- | --- | --- | --- | --- | --- |
| CCN(CCNc1nc2ccccc2[nH]1)Cc1cc(OC)ccc1O | 0.32 µM | 3.04 µM | 50 µM | 156 | 489 µM | 160 µM (≈ 54.5 µg/mL) |
| CCN(CCNc1nc2ccccc2[nH]1)Cc1cc(C#N)ccc1O | 0.968 µM | > 10 µM | 50 µM | 52 | 250 µM | 160 µM (≈ 53.7 µg/mL) |
| CCN(CCNc1nc2ccccc2[nH]1)Cc1cc(C)ccc1O | 0.408 µM | 2.43 µM | 24.5 µM | 60 | 4220 µM | > 200 µM |
| CCN(CCNc1nc2ccccc2[nH]1)Cc1cccc(F)c1O | 0.299 µM | 1.49 µM | 50 µM | 167 | 161 µM | 160 µM (≈ 52.5 µg/mL) |
| CCN(CCNc1nc2ccccc2[nH]1)Cc1cc(Cl)ccc1O | 0.11 µM | 0.762 µM | 25.1 µM | 228 | 125 µM | 160 µM (≈ 55.2 µg/mL) |
| CCN(CCNc1nc2ccccc2[nH]1)Cc1cc(Cl)cc(Cl)c1O | 0.4 µM | 1.4 µM | 50 µM | 125 | 30 µM | 160 µM (≈ 60.7 µg/mL) |
| CCN(CCNc1nc2ccccc2[nH]1)Cc1ccc(Cl)cc1O | 0.079 µM | 0.335 µM | 21.6 µM | 273 | 32 µM | 160 µM (≈ 55.2 µg/mL) |
| CCN(CCNc1nc2ccccc2[nH]1)Cc1cc(F)cc(F)c1O | 0.222 µM | 0.952 µM | 50 µM | 225 | 68 µM | 140 µM (≈ 48.5 µg/mL) |
| CCN(CCNc1nc2ccccc2[nH]1)Cc1ccccc1O | 0.474 µM | 2.66 µM | 50 µM | 105 | 452 µM | > 200 µM |
| CCN(CCNc1nc2ccccc2[nH]1)Cc1cccc(Cl)c1O | 0.521 µM | 1.25 µM | 50 µM | 96 | 130 µM | 160 µM (≈ 55.2 µg/mL) |
| CCN(CCNc1nc2ccccc2[nH]1)Cc1cccnc1O | > 10 µM | > 10 µM | 50 µM | – | – | > 200 µM |
| CCN(CCNc1nc2ccccc2[nH]1)Cc1ccccc1 | 3.6 µM | 1.88 µM | – | – | – | 140 µM (≈ 41.2 µg/mL) |
| C[C@H]1[C@H](OC(=O)CCC(=O)O)O[C@@H]2O[C@@]3(C)CC[C@H]4[C@H](C)CC[C@@H]1[C@@]24OO3 [ARTESUNATE] | 0.007 µM | – | – | – | – | – |
| CC[C@H]1CN2CCc3cc(OC)c(OC)cc3[C@@H]2C[C@@H]1C[C@H]1NCCc2cc(OC)c(OC)cc21 [EMETINE] | – | – | 0.059 µM | – | – | – |

— ChEMBL document CHEMBL4368895, “Incorporation of an intramolecular hydrogen bonding motif in the side chain of antimalarial benzimidazoles” (Medchemcomm, 2019)
